{"source": "patent US7691833B2", "about": "“Compositions and methods for preventing sporadic neoplasia in colon” (Trustees of Dartmouth College, priority 2002, dated 2010)", "key": {"[1]": {"test": "Serious medical events in the randomized, placebo-controlled aspirin study", "conditions": "for Serious Bleeding, Gastrointestinal, no of subjects / Serious Bleeding, Genitourinary, no of subjects: bleeding leading to hospitalization or surgical intervention", "experimental": "A multi-center, randomized, double-blind, placebo-controlled study was performed that examined the effects of aspirin alone as well as folate treatment combined with aspirin on the occurrence of large bowel adenomas. The study has a 3-by-2 factorial design, investigating aspirin (placebo, 81 mg/day, or 325 mg/day) and folic acid (placebo or 1 mg/day). Patients were recruited at nine centers in North America. Eligible subjects had at least one of the following: (1) one or more histologically confirmed large-bowel adenomas removed within 3 months prior to recruitment, (2) one or more histologically confirmed large-bowel adenomas removed within 16 months before recruitment and a lifetime history of 2 or more confirmed large-bowel adenomas, or (3) a histologically confirmed large-bowel adenoma at least 1 cm in diameter removed within 16 months before recruitment. […] Eligible subjects were between 21 and 80 years old, in good health, and with anticipated colonoscopic follow-up three years after the qualifying examination. Exclusion criteria included a history of a familial colorectal cancer syndrome, invasive large-bowel cancer, malabsorption syndromes, any condition potentially worsened by supplemental aspirin or folic acid, or any condition commonly treated with aspirin, non-steroidal anti-inflammatory drugs (NSAIDs), or folate (e.g., recurrent arthritis, atherosclerotic vascular disease, folic acid deficiency).\nStudy coordinators at each center maintained contact with the subjects on a regular basis; interval questionnaires regarding possible side effects and medical events were completed every four months by each subject.\nSubjects were regularly counseled regarding avoidance of aspirin and other NSATDs. Lists of products containing aspirin, ibuprofen, or naproxen were provided, and acetaminophen was distributed for treatment of minor febrile illnesses and pain. Every four months, subjects received questionnaires regarding adherence to study treatment; use of medications, over-the-counter drugs and nutritional supplements; and occurrence of symptoms, illnesses, and hospitalizations.\nThe statistical analysis compared the aspirin treatment groups irrespective of folic acid treatment. Subjects who underwent a follow-up endoscopy at least one year following randomization were included in the analyses. The predefined primary statistical analysis was a 2 degree-of-freedom chi-squared test for a contingency table comparing treatment groups regarding risk of one or more new adenomas. Crude risk ratios and 95 percent confidence intervals were used to compare treatment groups to placebo. Adjusted risk ratios were obtained from log-linear models with age, gender, clinical center, number of lifetime adenomas, and duration of follow-up as covariates. […] Possible modification of treatment effects by baseline characteristics was assessed using interaction terms in the log-linear model. Counts of other clinical endpoints were compared using Fisher's exact test. To compare the effect of aspirin on different types of polyps, a logistic regression model was used with generalized estimating equations (Liang and Zeger Biometrika 1986:13-22) to account for the clustering of multiple endpoints within patients. […] Two-sided P-values <0.05 were considered statistically significant."}, "[2]": {"tested_on": "large bowel adenomas", "test": "Randomized, double-blind, placebo-controlled study of aspirin on occurrence of large bowel adenomas", "assay_type": "in vivo, humans", "conditions": "for Relative Crude Risk (95% CI) / Adjusted Relative Risk (95% CI): versus placebo", "text": "Patients were recruited at nine centers in North America.\nBy protocol, subjects were to have a complete surveillance colonoscopy 34-40 months after the qualifying examination. At each colonoscopy, the endoscopist recorded the estimated size and location of all polyps and mucosal lesions suspicious for neoplasia as per usual clinical practice. Each lesion was removed and examined histologically at the clinical center and by the study pathologist. Polyps were classified as neoplastic (adenomatous) or non-neoplastic (e.g., hyperplastic) by the study pathologist.\nThe primary study outcome was the proportion of subjects with one or more colorectal adenomas detected during the period from one year after randomization through the anticipated surveillance follow-up. If a surveillance colonoscopy was not performed during the protocol time window, the last examination at least one year after randomization was taken as the follow-up exam. Pre-specified secondary outcomes were the numbers of large-bowel adenomas and “advanced lesions”: tubulovillous adenomas (25 to 75 percent villous features), villous adenomas (>75 percent villous), large adenomas ([…]), severe dysplasia, or invasive cancer. Separate analyses were also conducted for lesions in the left colorectum (descending colon, sigmoid colon, and rectum) and right colorectum (the remainder of the bowel)."}, "[3]": {"conditions": "Advanced Lesion, both aspirin groups combined"}, "[4]": {"conditions": "Any Adenoma, both aspirin groups combined"}, "[5]": {"conditions": "Tubular Adenoma, both aspirin groups combined"}}, "data": [{"compound": "CC(=O)Oc1ccccc1C(=O)O", "note": "[Aspirin, acetylsalicylic acid]", "values": [{"measurement": "Died, percent", "setting": "[1]; 81 mg Aspirin, N = 377 (Table 2)", "result": 0.8, "unit": "%"}, {"measurement": "Coronary Revascularization, no of subjects", "setting": "[1]; 81 mg aspirin (N = 377)", "result": 3}, {"measurement": "Deaths, no of subjects", "setting": "[1]; 81 mg aspirin (N = 377)", "result": 3}, {"measurement": "Hospitalization, no of subjects", "setting": "[1]; 81 mg aspirin (N = 377)", "result": 61}, {"measurement": "Myocardial Infarction, no of subjects", "setting": "[1]; 81 mg aspirin (N = 377)", "result": 2}, {"measurement": "Non-Colorectal Cancer, no of subjects", "setting": "[1]; 81 mg aspirin (N = 377)", "result": 14}, {"measurement": "Stroke, no of subjects", "setting": "[1]; 81 mg aspirin (N = 377)", "result": 2}, {"measurement": "Serious Bleeding, Gastrointestinal, no of subjects", "setting": "[1]; 81 mg aspirin (N = 377)", "result": 2}, {"measurement": "Serious Bleeding, Genitourinary, no of subjects", "setting": "[1]; 81 mg aspirin (N = 377)", "result": 6}, {"measurement": "stroke judged to be hemorrhagic", "setting": "[1]; 81 mg aspirin group, after review of the medical records", "result": "One"}, {"measurement": "Died, percent", "setting": "[1]; 325 mg Aspirin, N = 372 (Table 2)", "result": 1.1, "unit": "%"}, {"measurement": "Coronary Revascularization, no of subjects", "setting": "[1]; 325 mg aspirin (N = 372)", "result": 5}, {"measurement": "Deaths, no of subjects", "setting": "[1]; 325 mg aspirin (N = 372)", "result": 4}, {"measurement": "Hospitalization, no of subjects", "setting": "[1]; 325 mg aspirin (N = 372)", "result": 57}, {"measurement": "Myocardial Infarction, no of subjects", "setting": "[1]; 325 mg aspirin (N = 372)", "result": 4}, {"measurement": "Non-Colorectal Cancer, no of subjects", "setting": "[1]; 325 mg aspirin (N = 372)", "result": 9}, {"measurement": "Stroke, no of subjects", "setting": "[1]; 325 mg aspirin (N = 372)", "result": 5}, {"measurement": "Serious Bleeding, Gastrointestinal, no of subjects", "setting": "[1]; 325 mg aspirin (N = 372)", "result": 4}, {"measurement": "Serious Bleeding, Genitourinary, no of subjects", "setting": "[1]; 325 mg aspirin (N = 372)", "result": 2}, {"measurement": "Hospitalization, cancer and myocardial infarction frequency", "setting": "[1]; aspirin groups versus placebo, differences compatible with chance", "result": "somewhat more frequently in the aspirin groups than in placebo"}, {"measurement": "patients diagnosed with a stroke (all non-fatal)", "setting": "[1]; both aspirin groups together, none in placebo", "result": "Seven"}, {"measurement": "reduction in risk for advanced lesions", "setting": "[2]; 81 mg aspirin", "result": "> 40", "unit": "%"}, {"measurement": "reduction in risk of one or more adenomas", "setting": "[2]; 81 mg aspirin", "result": 19, "unit": "%"}, {"measurement": "adjusted risk ratio for the detection of at least one advanced adenoma", "setting": "[2]; 81 mg aspirin, among women", "result": 0.18}, {"measurement": "adjusted risk ratio for the detection of at least one advanced adenoma", "setting": "[2]; 81 mg aspirin, among younger subjects (younger than median age 57 years at randomization)", "result": 0.37}, {"measurement": "reduction in risk of one or more adenomas", "setting": "[2]; 325 mg aspirin, non-significant", "result": 4, "unit": "%"}, {"measurement": "N with adenoma/N followed", "setting": "[2]; Advanced Lesion, 81 mg/day", "result": "28/366"}, {"measurement": "N with adenoma/N followed (percent)", "setting": "[2]; Advanced Lesion, 81 mg/day", "result": "(7.7%)"}, {"measurement": "Relative Crude Risk (95% CI)", "setting": "[2]; Advanced Lesion, 81 mg/day", "result": 0.59}, {"measurement": "Adjusted Relative Risk (95% CI)", "setting": "[2]; Advanced Lesion, 81 mg/day, adjusted", "result": 0.58}, {"measurement": "N with adenoma/N followed", "setting": "[2]; Advanced Lesion, 325 mg/day", "result": "38/355"}, {"measurement": "N with adenoma/N followed (percent)", "setting": "[2]; Advanced Lesion, 325 mg/day", "result": "(10.7%)"}, {"measurement": "Relative Crude Risk (95% CI)", "setting": "[2]; Advanced Lesion, 325 mg/day", "result": 0.83}, {"measurement": "Adjusted Relative Risk (95% CI)", "setting": "[2]; Advanced Lesion, 325 mg/day, adjusted", "result": 0.83}, {"measurement": "N with adenoma/N followed", "setting": "[2]; [3]", "result": "66/721"}, {"measurement": "N with adenoma/N followed (percent)", "setting": "[2]; [3]", "result": "(9.2%)"}, {"measurement": "Relative Crude Risk (95% CI)", "setting": "[2]; [3]", "result": 0.71}, {"measurement": "Adjusted Relative Risk (95% CI)", "setting": "[2]; Advanced Lesion, both aspirin groups combined, adjusted", "result": 0.70}, {"measurement": "N with adenoma/N followed", "setting": "[2]; Any Adenoma, 81 mg/day", "result": "140/366"}, {"measurement": "N with adenoma/N followed (percent)", "setting": "[2]; Any Adenoma, 81 mg/day", "result": "(38.3%)"}, {"measurement": "N with adenoma/N followed (percent)", "setting": "[2]; Any Adenoma, 81 mg/day, listed as aspirin", "result": 38.3, "unit": "%"}, {"measurement": "Relative Crude Risk (95% CI)", "setting": "[2]; Any Adenoma, 81 mg/day", "result": 0.81}, {"measurement": "Adjusted Relative Risk (95% CI)", "setting": "[2]; Any Adenoma, 81 mg/day, adjusted", "result": 0.83}, {"measurement": "N with adenoma/N followed", "setting": "[2]; Any Adenoma, 325 mg/day", "result": "160/355"}, {"measurement": "N with adenoma/N followed (percent)", "setting": "[2]; Any Adenoma, 325 mg/day", "result": "(45.1%)"}, {"measurement": "N with adenoma/N followed (percent)", "setting": "[2]; Any Adenoma, 325 mg/day, listed as aspirin", "result": 45.1, "unit": "%"}, {"measurement": "Relative Crude Risk (95% CI)", "setting": "[2]; Any Adenoma, 325 mg/day", "result": 0.96}, {"measurement": "Adjusted Relative Risk (95% CI)", "setting": "[2]; Any Adenoma, 325 mg/day, adjusted", "result": 0.95}, {"measurement": "N with adenoma/N followed (percent)", "setting": "[2]; [4]", "result": "(41.6%)"}, {"measurement": "N with adenoma/N followed", "setting": "[2]; Any Adenoma, both aspirin groups combined (81 and 325 mg/day)", "result": "300/721"}, {"measurement": "Relative Crude Risk (95% CI)", "setting": "[2]; [4]", "result": 0.88}, {"measurement": "Adjusted Relative Risk (95% CI)", "setting": "[2]; Any Adenoma, both aspirin groups combined, adjusted for age, sex, clinical center, length of follow-up, baseline number of lifetime adenoma", "result": 0.89}, {"measurement": "N with adenoma/N followed", "setting": "[2]; Tubular Adenoma, 81 mg/day", "result": "121/366"}, {"measurement": "N with adenoma/N followed (percent)", "setting": "[2]; Tubular Adenoma, 81 mg/day", "result": "(33.1%)"}, {"measurement": "Relative Crude Risk (95% CI)", "setting": "[2]; Tubular Adenoma, 81 mg/day", "result": 0.84}, {"measurement": "Adjusted Relative Risk (95% CI)", "setting": "[2]; Tubular Adenoma, 81 mg/day, adjusted", "result": 0.87}, {"measurement": "N with adenoma/N followed", "setting": "[2]; Tubular Adenoma, 325 mg/day", "result": "141/355"}, {"measurement": "N with adenoma/N followed (percent)", "setting": "[2]; Tubular Adenoma, 325 mg/day", "result": "(39.7%)"}, {"measurement": "Relative Crude Risk (95% CI)", "setting": "[2]; Tubular Adenoma, 325 mg/day", "result": 1.01}, {"measurement": "Adjusted Relative Risk (95% CI)", "setting": "[2]; Tubular Adenoma, 325 mg/day, adjusted", "result": 1.00}, {"measurement": "N with adenoma/N followed", "setting": "[2]; [5]", "result": "262/721"}, {"measurement": "N with adenoma/N followed (percent)", "setting": "[2]; [5]", "result": "(36.3%)"}, {"measurement": "Relative Crude Risk (95% CI)", "setting": "[2]; [5]", "result": 0.92}, {"measurement": "Adjusted Relative Risk (95% CI)", "setting": "[2]; Tubular Adenoma, both aspirin groups combined, adjusted", "result": 0.93}, {"measurement": "reduction in risk of one or more adenomas", "setting": "[2]; both aspirin groups combined, non-significant", "result": 12, "unit": "%"}, {"measurement": "incidence of adenomas", "setting": "[2]; patients randomized to the aspirin groups", "result": "significantly lower"}]}]}
